Patent EP4789670A1, “PREPARATION CONTAINING URACIL DERIVATIVE” (Shionogi & Co., Ltd, priority 2023, dated 2025)
Converted amounts (≈) assume the structure as drawn.

Legend:
SARS-CoV-2 = assay: Cytopathic effect (CPE) suppression effect confirmation test using HEK293T/ACE2-TMPRSS2 cells; assay type: cell-based; conditions: Severe acute respiratory syndrome coronavirus 2, HEK-293T, 72 h, SARS-CoV-2 200-600 TCID50/well, cultured 3 days, CellTiter-Glo 2.0, read-out: 50% SARS-CoV-2 infected cell death inhibitory concentration (EC50)
Method: Test Example 1: Cytopathic Effect (CPE) Suppression Effect Confirmation Test Using HEK293T Cells Expressing Human TMPRSS2, ACE2 (HEK293T/ACE2-TMPRSS2 Cells)
The sample to be tested is diluted in advance to an appropriate concentration with DMSO, and a 2- to 5-fold series of serial dilutions is prepared and then dispensed into a 384-well plate.
HEK293T/ACE2-TMPRSS2 cells (GCP-SL222, 5×10^3 cells/well) and SARS-CoV-2 (200-600 TCID50/well) are mixed in a medium (MEM, 2% FBS, penicillin-streptomycin), the mixture is dispensed into the wells in which the sample to be tested has been introduced, and then the cells are cultured for 3 days in a CO2 incubator.
The plate that has been cultured for 3 days is returned to room temperature, subsequently CellTiter-Glo (registered trademark) 2.0 is dispensed into each well, and the plate is mixed using a plate mixer. After standing for a predetermined period of time, the luminescence signal (Lum) is measured using a plate reader.

physchem = assay type: physicochemical
Method: The solid dispersion obtained in Example 4D and the anhydrous crystal alone of the compound represented by Formula (I) (Example 4F-1) were added to various test media to prepare suspensions of 30 to 50 mL. The prepared suspensions were placed in centrifuge tubes and shaken at a shaking speed of 100 rpm or higher. After 60 minutes from the start of shaking, 5 mL of each suspension was collected and immediately filtered through a filter (Chromadisc, 0.45 µm, 25A) to obtain test samples.

| Structure (SMILES) | EC50 (SARS-CoV-2) | solubility at 1 h (physchem; diluted mcilvaine buffer, pH 4) | solubility at 1 h (physchem; jp first dissolution test medium, pH 1.2) | solubility at 1 h (physchem; jp second dissolution test medium, pH 6.8) | solubility at 1 h (physchem; purified water) |
| --- | --- | --- | --- | --- | --- |
| N#CCn1c(N2CC3(C2)CC(F)(F)C3)c(-c2ccc(F)c(Cl)c2)c(=O)n(-c2cncc(Cl)c2)c1=O [Compound (I)] | 1.66 nM |  |  |  |  |
| N#CCn1c(N2CC3(C2)CC(F)(F)C3)c(-c2ccc(F)c(Cl)c2)c(=O)n(-c2cncc(Cl)c2)c1=O [Example 4F-1] |  | 0.64 µg/mL (≈ 1.23 µM) | 1.08 µg/mL (≈ 2.07 µM) | 0.61 µg/mL (≈ 1.17 µM) | 0.71 µg/mL (≈ 1.36 µM) |
